From PMC3934957, “A Porphodimethene Chemical Inhibitor of Uroporphyrinogen Decarboxylase” (PLoS ONE, 2014)

Molecular target: T1, uroporphyrinogen decarboxylase (UROD) (Homo sapiens, UniProt P06132)
T1 construct: recombinant UROD (GenBank BC001778) with 5'-histidine tag and thrombin cleavage site
T1 sequence (P06132 1-367): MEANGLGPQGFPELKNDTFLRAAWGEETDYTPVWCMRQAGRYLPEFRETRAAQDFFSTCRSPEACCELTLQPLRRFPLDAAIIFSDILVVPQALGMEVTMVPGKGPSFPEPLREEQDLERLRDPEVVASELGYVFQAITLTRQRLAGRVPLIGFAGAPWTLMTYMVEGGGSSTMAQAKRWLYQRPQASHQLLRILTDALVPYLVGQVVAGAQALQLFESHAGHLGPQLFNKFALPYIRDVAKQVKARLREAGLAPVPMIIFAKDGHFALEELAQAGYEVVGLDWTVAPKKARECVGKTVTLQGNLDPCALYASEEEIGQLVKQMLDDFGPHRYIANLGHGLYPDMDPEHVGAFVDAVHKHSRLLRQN
Assay: Recombinant UROD enzyme assay with RP-HPLC fluorescence detection of uroporphyrin/coproporphyrin ([…] UROD, […] uroporphyrinogen)
Assay type: biochemical

IC50: 9.9 µM
SMILES: CC1=C(CCC(=O)O)C2=Cc3[nH]c(c(C)c3CCC(=O)O)C(C)(C)C3=NC(=Cc4[nH]c(c(C)c4CCC(=O)O)C(C)(C)C1=N2)C(CCC(=O)O)=C3C [PI-16]
